Read-outs that look alike come from different tables or passages of the source.
Assays:
femur fractures [1] = tested on: femur fractures; parameters: Percent Effective Shear Modulus / Percent Effective Shear Stress: scale not given: direction of the effect not stated beside the values; settings: no carrier, 4 weeks post-fracture; for Percent Effective Shear Modulus / Percent Effective Shear Stress / Percent Maximum Torque to Failure / Percent maximum torsional rigidity: normalized to intact femur
Method: Torsional testing was conducted at 4 weeks post-fracture, using a servohydraulics machine (MTS Sys. Corp., Eden Prairie, MN) with a 20 Nm reaction torque cell (Interface, Scottsdale, AZ). Femurs were tested to failure at a rate of 2.0 deg/sec at four weeks post-fracture. […] In order to compare the biomechanical parameters between different groups, the data was normalized by dividing each fractured femur value by its corresponding intact, contralateral femur value. Torsional mechanical testing is limited by differences in gauge length during bone potting in Field's metal. Placement and dimension of fracture gap can contribute to standard deviations.

femur fractures [2] = settings: four weeks post-fracture
Source text: X-rays are taken at two-week intervals to the day of euthanasia. After euthanasia x-rays are taken as well. To take x-rays, animals will be given a half dose of anesthesia. All groups will be monitored closely for four days after surgery for infection, and the ability to ambulate freely.

femur fractures [3] = tested on: femur fractures
Source text: The fractured femora were resected at seven and ten days post-fracture, decalcified, dehydrated, embedded in paraffin, and sectioned using standard histological techniques. Sections were stained with Masson's Trichrome (Accustain™ Trichrome Staining kit, Sigma Diagnostics, St. Louis, MO) for histological observation using an Olympus BH2-RFCA microscope (Olympus Optical Co., Ltd., Shinjuku-ku, Tokyo, Japan). Digital images were collected using a Nikon DXM1200F digital camera (Nikon, Tokyo, Japan). Cartilage, new bone, and total callus area were measured from the digital images using Image-Pro Plus software (version 5, Media Cybernetics, Inc., Silver Spring, MD). Total cartilage and new bone area were normalized to total callus area and expressed as the percent area. Two independent reviewers were used to minimize inconsistencies.

[4] = tested on: posterolateral lumbar fusion (L4-L5); assay: Spinal fusion: radiographic analysis; settings: n=10, eight weeks
[5] = tested on: posterolateral lumbar fusion (L4-L5); assay: Spinal fusion: MicroCT bone volume; settings: L4/L5 transverse processes and fusion mass, eight weeks
[6] = tested on: posterolateral lumbar fusion (L4-L5); assay: Spinal fusion: manual palpation; settings: n=10, eight weeks
[7] = manganese chloride 0.125 mg/kg, 7 days post fracture
[8] = manganese chloride 0.125 mg/kg, 10 days post fracture
[9] = manganese chloride 0.3 mg/kg, 7 days post fracture
[10] = manganese chloride 0.3 mg/kg, 10 days post fracture
[11] = manganese chloride 0.87 mg/kg, 7 days post fracture
[12] = manganese chloride 0.87 mg/kg, 10 days post fracture
[13] = Zn-high pellet 1.0 mg/kg, listed as zinc
[14] = Zn-low pellet 0.5 mg/kg, listed as zinc

[Cl][Mn][Cl] [MnCl2, manganese chloride]
Effective Shear Modulus (femur fractures [1]; MnCl2 0.083 mg/kg local): 8.7×10^2 ± 4.9×10^2 MPa
Effective Shear Stress (femur fractures [1]; MnCl2 0.083 mg/kg local): 30 ± 8 MPa
Maximum Torque to Failure (femur fractures [1]; MnCl2 0.083 mg/kg local): 272 ± 39 Nmm
Maximum Torsional Rigidity (femur fractures [1]; MnCl2 0.083 mg/kg local): 2.6×10^4 ± 1.2×10^4 Nmm^2/rad
Percent Effective Shear Modulus (femur fractures [1]; MnCl2 0.083 mg/kg local): 8 ± 7%
Percent Effective Shear Stress (femur fractures [1]; MnCl2 0.083 mg/kg local): 8 ± 4%
Percent Maximum Torque to Failure (femur fractures [1]; MnCl2 0.083 mg/kg local): 42 ± 5%
Percent maximum torsional rigidity (femur fractures [1]; MnCl2 0.083 mg/kg local): 56 ± 30%
Effective Shear Modulus (femur fractures [1]; MnCl2 0.125 mg/kg local): 6.4×10^2 ± 8.8×10^1 MPa
Effective Shear Stress (femur fractures [1]; MnCl2 0.125 mg/kg local): 21 ± 6 MPa
Maximum Torque to Failure (femur fractures [1]; MnCl2 0.125 mg/kg local): 351 ± 59^∗ Nmm
Maximum Torsional Rigidity (femur fractures [1]; MnCl2 0.125 mg/kg local): 4.2×10^4 ± 1.1×10^4 Nmm^2/rad
Percent Effective Shear Modulus (femur fractures [1]; MnCl2 0.125 mg/kg local): 16 ± 11%
Percent Effective Shear Stress (femur fractures [1]; MnCl2 0.125 mg/kg local): 14 ± 5%
Percent Maximum Torque to Failure (femur fractures [1]; MnCl2 0.125 mg/kg local): 54 ± 5%
Percent maximum torsional rigidity (femur fractures [1]; MnCl2 0.125 mg/kg local): 103 ± 40^∗ Percent
Effective Shear Modulus (femur fractures [1]; MnCl2 0.25 mg/kg local): 8.1×10^2 ± 5.0×10^2 MPa
Effective Shear Stress (femur fractures [1]; MnCl2 0.25 mg/kg local): 32 ± 11 MPa
Maximum Torque to Failure (femur fractures [1]; MnCl2 0.25 mg/kg local): 344 ± 84^∗ Nmm
Maximum Torsional Rigidity (femur fractures [1]; MnCl2 0.25 mg/kg local): 3.4×10^4 ± 1.6×10^4 Nmm^2/rad
Percent Effective Shear Modulus (femur fractures [1]; MnCl2 0.25 mg/kg local): 14 ± 9%
Percent Effective Shear Stress (femur fractures [1]; MnCl2 0.25 mg/kg local): 16 ± 6%
Percent Maximum Torque to Failure (femur fractures [1]; MnCl2 0.25 mg/kg local): 55 ± 19%
Percent maximum torsional rigidity (femur fractures [1]; MnCl2 0.25 mg/kg local): 80 ± 34^∗ Percent
Effective Shear Modulus (femur fractures [1]; MnCl2 0.30 mg/kg local): 7.6×10^2 ± 9.2×10^2 MPa
Effective Shear Stress (femur fractures [1]; MnCl2 0.30 mg/kg local): 27 ± 23 MPa
Maximum Torque to Failure (femur fractures [1]; MnCl2 0.30 mg/kg local): 323 ± 135^∗ Nmm
Maximum Torsional Rigidity (femur fractures [1]; MnCl2 0.30 mg/kg local): 3.0×10^4 ± 2.6×10^4 Nmm^2/rad
Percent Effective Shear Modulus (femur fractures [1]; MnCl2 0.30 mg/kg local): 10 ± 12%
Percent Effective Shear Stress (femur fractures [1]; MnCl2 0.30 mg/kg local): 16 ± 12%
Percent Maximum Torque to Failure (femur fractures [1]; MnCl2 0.30 mg/kg local): 50 ± 22%
Percent maximum torsional rigidity (femur fractures [1]; MnCl2 0.30 mg/kg local): 50 ± 37%
Effective Shear Modulus (femur fractures [1]; MnCl2 0.50 mg/kg local): 6.2×10^2 ± 3.5×10^2 MPa
Effective Shear Stress (femur fractures [1]; MnCl2 0.50 mg/kg local): 19 ± 9 MPa
Maximum Torque to Failure (femur fractures [1]; MnCl2 0.50 mg/kg local): 230 ± 83 Nmm
Maximum Torsional Rigidity (femur fractures [1]; MnCl2 0.50 mg/kg local): 2.9×10^4 ± 1.2×10^4 Nmm^2/rad
Percent Effective Shear Modulus (femur fractures [1]; MnCl2 0.50 mg/kg local): 17 ± 13%
Percent Effective Shear Stress (femur fractures [1]; MnCl2 0.50 mg/kg local): 14 ± 7%
Percent Maximum Torque to Failure (femur fractures [1]; MnCl2 0.50 mg/kg local): 38 ± 15%
Percent maximum torsional rigidity (femur fractures [1]; MnCl2 0.50 mg/kg local): 61 ± 16%
mineralized tissue on radiographs (femur fractures [2]; MnCl2 0.25 mg/kg): increased mineralized tissue than saline controls
union on radiographs (femur fractures [2]; MnCl2 group, saline control had no evidence of union): union at the subperiosteal bony area and at the callus
% Cartilage (femur fractures [3]; [7]): 4.843 ± 2.3 n=6%
% new bone (femur fractures [3]; [7]): 15.518 ± 2.69 n=6%
% Cartilage (femur fractures [3]; [8]): 5.9 ± 4.47 n=5%
% new bone (femur fractures [3]; [8]): 14.69 ± 11.74 n=5%
% Cartilage (femur fractures [3]; [9]): 2.859 ± 1.09 n=7%
% new bone (femur fractures [3]; [9]): 15.604 ± 2.39 n=7%
% Cartilage (femur fractures [3]; [10]): 11.051 ± 3.05 n=9%
% new bone (femur fractures [3]; [10]): 18.866 ± 2.28^∗,# n=9%
% Cartilage (femur fractures [3]; [11]): 4.355 ± 3.99 n=3%
% new bone (femur fractures [3]; [11]): 16.492 ± 3.59 n=3%
% Cartilage (femur fractures [3]; [12]): 8.227 ± 2.24 n=3%
% new bone (femur fractures [3]; [12]): 15.948 ± 3.04 n=3%

[Zn] [Zn]
Radiographs: number graded A = solid fusion mass bilaterally ([4]; Zn-high pellet 1.0 mg/kg): 7
Radiographs: number graded B = unilateral fusion mass ([4]; Zn-high pellet 1.0 mg/kg): 3
Radiographs: number graded C = small fusion mass bilaterally ([4]; Zn-high pellet 1.0 mg/kg): 0
Radiographs: number graded D = Graft resorption ([4]; Zn-high pellet 1.0 mg/kg): 0
Radiographs: number graded A = solid fusion mass bilaterally [4, 13]: 7/10
Radiographs: number graded B = unilateral fusion mass [4, 13]: 3/10
Radiographs: number graded C = small fusion mass bilaterally [4, 13]: 0/10
Radiographs: number graded D = Graft resorption [4, 13]: 0/10
Radiographs: number graded A = solid fusion mass bilaterally ([4]; Zn-low pellet 0.5 mg/kg): 7
Radiographs: number graded B = unilateral fusion mass ([4]; Zn-low pellet 0.5 mg/kg): 1
Radiographs: number graded C = small fusion mass bilaterally ([4]; Zn-low pellet 0.5 mg/kg): 2
Radiographs: number graded D = Graft resorption ([4]; Zn-low pellet 0.5 mg/kg): 0
Radiographs: number graded A = solid fusion mass bilaterally [4, 14]: 7/10
Radiographs: number graded B = unilateral fusion mass [4, 14]: 1/10
Radiographs: number graded C = small fusion mass bilaterally [4, 14]: 2/10
Radiographs: number graded D = Graft resorption [4, 14]: 0/10
Mean Bone Volume ([5]; Zn high dose pellet (1.0 mg/kg)): 172.7 mm^3
Mean Bone Volume ([5]; Zn low dose pellet (0.5 mg/kg)): 172.9 mm^3
Manual palpation: number graded A = fused ([6]; Zn-high pellet 1.0 mg/kg): 4
Manual palpation: number graded B = partially fused ([6]; Zn-high pellet 1.0 mg/kg): 1
Manual palpation: number graded C = not fused ([6]; Zn-high pellet 1.0 mg/kg): 5
Manual palpation: number graded A = fused [6, 13]: 4/10
Manual palpation: number graded B = partially fused [6, 13]: 1/10
Manual palpation: number graded C = not fused [6, 13]: 5/10
Manual palpation: number graded A = fused ([6]; Zn-low pellet 0.5 mg/kg): 3
Manual palpation: number graded B = partially fused ([6]; Zn-low pellet 0.5 mg/kg): 4
Manual palpation: number graded C = not fused ([6]; Zn-low pellet 0.5 mg/kg): 3
Manual palpation: number graded A = fused [6, 14]: 3/10
Manual palpation: number graded B = partially fused [6, 14]: 4/10
Manual palpation: number graded C = not fused [6, 14]: 3/10

Reference: patent publication EP2785358B1, “INSULIN-MIMETICS AS THERAPEUTIC ADJUNCTS FOR BONE REGENERATION” (priority 2011, dated 2013)
